Molecules are shown by their SMILES.

This note sets out measurements from patent US20100111888A1, “Organic Compounds and Compositions Having the Ability to Modulate Fragrance Compositions” (GIVAUDAN SA, priority 2007, published 2010).

The target in the test is T1, CYP2A13 (Homo sapiens, UniProt Q16696).
T1 construct: made in house; host or cells: Sf9 insect cells, recombinant baculovirus
T1 sequence (Q16696 1-494): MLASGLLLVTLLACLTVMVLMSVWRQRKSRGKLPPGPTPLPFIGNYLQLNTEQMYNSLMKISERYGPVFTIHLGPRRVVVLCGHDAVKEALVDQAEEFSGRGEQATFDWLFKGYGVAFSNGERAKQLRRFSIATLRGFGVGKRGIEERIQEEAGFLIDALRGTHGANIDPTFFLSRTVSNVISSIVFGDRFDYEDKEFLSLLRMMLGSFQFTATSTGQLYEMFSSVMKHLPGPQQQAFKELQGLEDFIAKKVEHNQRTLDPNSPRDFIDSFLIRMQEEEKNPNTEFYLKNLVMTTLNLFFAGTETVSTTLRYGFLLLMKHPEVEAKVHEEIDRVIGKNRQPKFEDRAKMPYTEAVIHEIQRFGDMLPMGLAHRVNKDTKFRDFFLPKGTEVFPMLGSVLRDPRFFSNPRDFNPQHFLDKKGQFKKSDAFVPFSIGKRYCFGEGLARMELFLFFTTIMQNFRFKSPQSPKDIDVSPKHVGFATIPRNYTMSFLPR
Put plainly: Evaluation of test compounds as inhibitors of CYP2A13 (coumarin to Umbelliferone, fluorescence). Type of test: biochemical. The note with it: substrate coumarin 0.006 mM; microsomes with 7 pmoles CYP2A13; 60 min at 37° C.; read-out: CYP2A13 inhibitor activity IC50. The source says: P450 reductase is commercially available (BD Biosciences Gentest, USA).
Microsomes were used which contained 7 pmoles CYP2A13.
On to `CCC/C(=C\c1ccccc1)C(C)=O` [Compound ID 32, (E)-3-benzylidenehexan-2-one], for which the IC50 is 1000 nM.

For `CCCCC/C(=C\C(C)C)C(C)=O` [Compound ID 56, (E)-3-(2-methylpropylidene)octan-2-one], the IC50 was 200 nM.

For `CCCC/C(=C\C1CCOC1)C(C)=O` (stereo not shown) [Compound ID 10, (E)-3-((tetrahydrofuran-3-yl)methylene)heptan-2-one], the IC50 came to 15500 nM.

On to `CCCCC/C(=C\C1CCCC1)C(C)=O` [Compound ID 18, (E)-3-(cyclopentylmethylene)octan-2-one], for which the IC50 stood at 500 nM.

In the case of `CCCCC/C(=C\C(C)(C)C)C(C)=O` [Compound ID 55, (E)-3-(2,2-dimethylpropylidene)octan-2-one], the IC50 was determined as 300 nM.

As for `CCCCC/C(=C\C1CC=CCC1)C(C)=O` (stereo not shown) [Compound ID 17, (E)-3-(cyclohex-3-enylmethylene)octan-2-one], the IC50 is 600 nM.

As to `CCCCCC/C(=C\C1CC1)C(=O)/C=C/C1CC1` [Compound ID 13, (1E,4E)-1-cyclopropyl-4-(cyclopropylmethylene)dec-1-en-3-one], the IC50 amounted to 9700 nM.

On to `CCCCCC1(C(=O)OC)CCCC1` [Compound ID 14, methyl 1-pentylcyclopentanecarboxylate], for which the IC50 was determined as 2100 nM.

Consider `CCCCC/C(=C\c1ccc(F)cc1)C(C)=O` [Compound ID 22, (E)-3-(4-fluorobenzylidene)octan-2-one], for which the IC50 came to 400 nM.

With `CCCCC/C(=C\c1cccc(F)c1)C(C)=O` [Compound ID 21, (E)-3-(3-fluorobenzylidene)octan-2-one], the IC50 worked out at 300 nM.

Consider `CCCCC/C(=C\C1CCCCC1)C(C)=O` [Compound ID 16, (E)-3-(cyclohexylmethylene)octan-2-one], for which the IC50 is 500 nM.

Turning to `CCCCC/C(=C\c1cccnc1)C(C)=O` [Compound ID 44, (E)-3-(pyridin-3-ylmethylene)octan-2-one], the IC50 turned out to be 100 nM.

Consider `CCCCC/C(=C\c1ccccc1C)C(C)=O` [Compound ID 28, (E)-3-(2-methylbenzylidene)octan-2-one], for which the IC50 is 300 nM.

As for `CCCCCC(CC1CC1)C(=O)OC` (stereo not shown) [Compound ID 48, methyl 2-(cyclopropylmethyl)heptanoate], the IC50 was determined as 8700 nM.

Take `CCCCCC(Cc1ccccc1)C(=O)OC` (stereo not shown) [Compound ID 49, methyl 2-benzylheptanoate]: the IC50 was determined as 4400 nM.

As for `CCCC/C(=C\c1ccc(OC)cc1)C(C)=O` [Compound ID 37, (E)-3-(4-methoxybenzylidene)heptan-2-one], the IC50 came out at 1400 nM.

On to `CCCCC/C(=C\CC1(C)OCCO1)C(C)=O` [Compound ID 12, (E)-3-(2-(2-methyl-1,3-dioxolan-2-yl)ethylidene)octan-2-one], for which the IC50 came to 3200 nM.

Take `CCCCCC1(C(C)=O)CCCC1` [Compound ID 15, 1-(1-pentylcyclopentyl)ethanone]: the IC50 was found to be 700 nM.

For `CCCCC/C(=C\c1ccccn1)C(C)=O` [Compound ID 43, (E)-3-(pyridin-2-ylmethylene)octan-2-one], the IC50 was determined as 100 nM.

On to `CCCCC/C(=C\c1cccc(OC)c1)C(C)=O` [Compound ID 35, (E)-3-(3-methoxybenzylidene)octan-2-one], for which the half-inhibitory concentration (IC50) stood at 500 nM.

Turning to `CCCCC/C(=C\C1CCC1)C(C)=O` [Compound ID 19, (E)-3-(cyclobutylmethylene)octan-2-one], the IC50 stood at 300 nM.

With `CCCCC/C(=C\c1ccncc1)C(C)=O` [Compound ID 45, (E)-3-(pyridin-4-ylmethylene)octan-2-one], the half-inhibitory concentration (IC50) is 500 nM.

In the case of `CCCCC/C(=C\c1ccc(C(=O)OC)cc1)C(C)=O` [Compound ID 40, (E)-methyl 4-(2-acetylhept-1-enyl)benzoate], the IC50 was 1100 nM.

Take `CCCCC/C(=C\c1c(F)cccc1F)C(C)=O` [Compound ID 23, (E)-3-(2,6-difluorobenzylidene)octan-2-one]: the IC50 worked out at 200 nM.

Consider `CCCCC/C(=C\C(C)(C)C)C(=O)OC` [Compound ID 53, (E)-methyl 2-(2,2-dimethylpropylidene)heptanoate], for which the IC50 came to 1900 nM.

For `CCCCC/C(=C\c1ccccc1F)C(C)=O` [Compound ID 20, (E)-3-(2-fluorobenzylidene)octan-2-one], the IC50 was 300 nM.

In the case of `CCCCC/C(=C\c1ccc(F)cc1F)C(C)=O` [Compound ID 24, (E)-3-(2,4-difluorobenzylidene)octan-2-one], the IC50 is 200 nM.

Consider `CCCCC/C(=C\c1ccc2ccccc2c1)C(C)=O` [Compound ID 8, (E)-3-(naphthalen-2-ylmethylene)octan-2-one], for which the IC50 turned out to be 16300 nM.

Turning to `CCCCC/C(=C\C(C)(C)C)C(=O)O` [Compound ID 54, (E)-2-(2,2-dimethylpropylidene)heptanoic acid], the IC50 is 2600 nM.

Consider `CCCCC/C(=C\c1ccc(C#N)cc1)C(C)=O` [Compound ID 7, (E)-4-(2-acetylhept-1-enyl)benzonitrile], for which the IC50 came out at 2000 nM.

As to `CCCCC/C(=C\c1cccc(C)c1)C(C)=O` [Compound ID 29, (E)-3-(3-methylbenzylidene)octan-2-one], the IC50 came out at 400 nM.

As to `CCCCC/C(=C/c1cc(F)cc(F)c1)C(C)=O` [Compound ID 26, (Z)-3-(3,5-difluorobenzylidene)octan-2-one], the IC50 amounted to 14300 nM.

As for `CCCCC/C(=C\C1CC1)C(=O)OC` [Compound ID 46, (E)-methyl 2-(cyclopropylmethylene)heptanoate], the IC50 stood at 2300 nM.

Consider `CCCCC/C(=C\c1ccc(OC)cc1)C(C)=O` [Compound ID 36, (E)-3-(4-methoxybenzylidene)octan-2-one], for which the IC50 was determined as 400 nM.

For `CCCCC/C(=C\C1CC1)C(=O)CC` [Compound ID 57, (E)-4-(cyclopropylmethylene)nonan-3-one], the IC50 was found to be 300 nM.

On to `CCCCC/C(=C\c1cc(F)cc(F)c1)C(C)=O` [Compound ID 25, (E)-3-(3,5-difluorobenzylidene)octan-2-one], for which the IC50 was 600 nM.

On to `CCCCC/C(=C\c1ccccc1)C(=O)CC` [Compound ID 58, (E)-4-benzylidenenonan-3-one], for which the IC50 was determined as 500 nM.

Take `CCCCC/C(=C\c1ccccc1C(F)(F)F)C(C)=O` [Compound ID 31, (E)-3-(2-(trifluoromethyl)benzylidene)octan-2-one]: the IC50 was found to be 200 nM.

As for `CCC/C(=C\c1ccc(OC)cc1)C(C)=O` [Compound ID 38, (E)-3-(4-methoxybenzylidene)hexan-2-one], the IC50 worked out at 2000 nM.

As to `CCCCC/C(=C\c1ccc(C)cc1)C(C)=O` [Compound ID 30, (E)-3-(4-methylbenzylidene)octan-2-one], the IC50 is 400 nM.

Regarding `CCCCC/C(=C\c1ccccc1)C(=O)OC` [Compound ID 47, (E)-methyl 2-benzylideneheptanoate], the IC50 came to 500 nM.

On to `CCCCC/C(=C\c1ccccc1OC)C(C)=O` [Compound ID 34, (E)-3-(2-methoxybenzylidene)octan-2-one], for which the IC50 is 400 nM.

As for `CCCCC/C(=C\c1cccs1)C(C)=O` [Compound ID 9, (E)-3-(thiophen-2-ylmethylene)octan-2-one], the 50% inhibitory concentration (IC50) was 5300 nM.

For the compound `CCCCC/C(=C\c1c(F)c(F)c(F)c(F)c1F)C(C)=O` [Compound ID 27, (E)-3-(perfluorobenzylidene)octan-2-one], the IC50 was 700 nM.

Consider `CCCCC/C(C(C)=O)=C(/C)c1ccccc1` [Compound ID 51, (E)-3-(1-phenylethylidene)octan-2-one], for which the IC50 came out at 2500 nM.

Turning to `CCCCCC(CC1CC1)C(C)=O` (stereo not shown) [Compound ID 50, 3-(cyclopropylmethyl)octan-2-one], the IC50 was found to be 1300 nM.

`CCCCC/C(=C\C1CC1)C(=O)c1ccccc1` [Compound ID 52, (E)-2-(cyclopropylmethylene)-1-phenylheptan-1-one]: the IC50 worked out at 6600 nM.

Regarding `CCCCC/C(=C/c1ccc(C(=O)OC)cc1)C(C)=O` [Compound ID 41, (Z)-methyl 4-(2-acetylhept-1-enyl)benzoate], the IC50 is 47200 nM.

For the compound `CCCCC/C(=C\C(OC)OC)C(C)=O` [Compound ID 11, (E)-3-(2,2-dimethoxyethylidene)octan-2-one], the IC50 came out at 1600 nM.

Turning to `CCCCC/C(=C\c1ccc2c(c1)OCO2)C(C)=O` [Compound ID 39, (E)-3-(benzo[d][1,3]dioxol-5-ylmethylene)octan-2-one], the IC50 is 2000 nM.

Regarding `CCCCCC/C(=C\c1ccccc1)C(C)=O` [Compound ID 6, (E)-3-benzylidenenonan-2-one], the IC50 worked out at 3000 nM.

Take `CCCC/C(=C\c1ccccc1)C(C)=O` [Compound ID 33, (E)-3-benzylideneheptan-2-one]: the IC50 was 600 nM.
